{"source": "patent US20020061569A1", "about": "“Identification of essential genes in prokaryotes” (priority 2000, published 2002)", "molecules": {"B1": {"name": "S1M10000001A05: clone containing the nucleic acid which inhibits Staphylococcus aureus proliferation (nucleic acid, listed as Staphylococcus aureus)", "DNA": "GATCATATAGAATGACATCCGCTTCACGTATTAAACGCTCAGCCTTTTTCGTCAAATAATTCGGATTACCTGGACCCGCACCTATCAAGTAAACCTTGCCATATTCCTCTACAGACATATATATACGTTCCCGTCTGTAACTTCTACCTCATAAACATCTACACAACCTTCATCAGGTTCTTGAACAATACCTGTATTTAAATCAATTTTTT"}}, "key": {"[1]": {"test_system": "E. coli transformed with IPTG-inducible antisense clones", "experiment": "Cell-based assay using antisense to genes encoding ribosomal proteins (Example 9)", "text": "First, pLex5BA (Krause et al., J. Mol. Biol. 274: 365 (1997), the disclosure of which is incorporated herein by reference in its entirety) vectors containing antisense constructs to either rplW or to elaD were introduced into separate E. coli cell populations. Vector introduction is a technique well known to those of ordinary skill in the art. The vectors of this example contain IPTG inducible promoters that drive the transcription of the antisense RNA in the presence of the inducer. However, those skilled in the art will appreciate that other inducible promoters may also be used. Suitable vectors are also well known in the art. Antisense clones to genes encoding different ribosomal proteins or to genes encoding proteins that are not involved in protein synthesis were utilized to test the effect of antisense transcription on cell sensitivity to the antibiotics known to bind to ribosomal proteins and inhibit protein synthesis. Antisense nucleic acids comprising a nucleotide sequence complementarty to the elaD, atpB&atpE, visC and yohH genes are referred to as AS-elaD, AS-atpB/E, AS-visC, AS-yohH respectively. These genes are not known to be involved in protein synthesis. […]\nThe cell populations containing vectors producing AS-elaD or AS-rplW were exposed to a range of IPTG concentrations in liquid medium to obtain the growth inhibitory dose curve for each clone (FIG. 1). First, seed cultures were grown to a particular turbidity measured by the optical density (OD) of the growth solution. […] The cells were grown for up to 15 hours and the extent of growth was determined by measuring the optical density of the cultures at 600 nm. […]\nAn example of a tetracycline dose response curve is shown in FIGS. 2A and 2B for the rplW and elaD genes, respectively. Cells were grown to log phase and then diluted into medium alone or medium containing IPTG at concentrations which give 20% and 50% growth inhibition as determined by IPTG dose response curves. […] The 96 well plates were incubated at 37° C. and the OD600 was read by a plate reader every 5 minutes for up to 15 hours. […]"}, "[2]": {"test_system": "Staphylococcus aureus RN4220", "experiment": "Inhibition of proliferation after xylose induction of antisense expression (Example 1)", "assay_type": "cell-based", "conditions": "2% xylose", "text": "In the case of Staphylococcus aureus, a novel inducible promoter system, XylT5, comprising a modified T5 promoter fused to the xylO operater from the xyla promoter of Staphylococcus aureus was used. The promoter is described in U.S. Provisional Patent Application Ser. No. 60/259,434, the disclosure of which is incorporated herein by reference in its entirety. Transcription from this hybrid promoter is inducible by xylose.\nIn the case of Staphylococcus aureus, a shotgun library of Staphylococcus aureus genomic fragments was cloned into the vector pXyIT5-P15a, which harbors the Xy1T5 inducible promoter. […]\nThe purified library was then transformed into electrocompetent Staphylococcus aureus RN4220. […] Gridded plates were incubated 16 hours at 37° C., and then manually scored for arrayed colonies that were growth-compromised in the presence of xylose.\nArrayed colonies that were growth-sensitive on medium containing 2% xylose, yet were able to grow on similar medium lacking xylose, were subjected to further growth sensitivity analysis as follows: Colonies from the plate lacking xylose were manually picked and inoculated into individual wells of a 96 well culture dish containing LBG+CM15, and were incubated for 16 hours at 37° C. […] Clones that grew similarly at all dilutions on both media were scored as a negative and were no longer considered."}}, "data": [{"molecule": "CC[C@H]1OC(=O)[C@H](C)[C@@H](O[C@H]2C[C@@](C)(OC)[C@@H](O)[C@H](C)O2)[C@H](C)[C@@H](O[C@@H]2O[C@H](C)C[C@H](N(C)C)[C@H]2O)[C@](C)(O)C[C@@H](C)C(=O)[C@H](C)[C@@H](O)[C@]1(C)O", "note": "[Erythromycin]", "values": [{"measurement": "sensitivity of cells transcribing antisense to genes not involved in protein synthesis", "setting": "[1]; AS-atpB/E, AS-visC, AS-elaD, AS-yohH", "value": "do not"}, {"measurement": "sensitivity of cells transcribing antisense to protein synthesis genes", "setting": "[1]; AS-rplL, AS-rplW, clones to L7/L12, L10, L22, L18, rRNA, Elongation Factor G, with vs without IPTG", "value": "increased sensitivity"}]}, {"molecule": "CCn1cc(C(=O)O)c(=O)c2ccc(C)nc21", "note": "[Nalidixic acid]", "values": [{"measurement": "sensitivity of the clone transcribing antisense to rplL and rplJ (AS-rplL/J)", "setting": "[1]; antibiotics which do not inhibit protein synthesis", "value": "does not show increased sensitivity"}]}, {"molecule": "B1", "values": [{"measurement": "growth sensitivity upon induction of antisense transcription", "setting": "[2]", "value": "inhibits Staphylococcus aureus proliferation"}]}]}
